According to ChEMBL document CHEMBL6109134, “Discovery of AMG 193, an MTA-Cooperative PRMT5 Inhibitor for the Treatment of MTAP-Deleted Cancers” (J Med Chem, 2025):

Legend:
HCT-116 [1] = test: Antiproliferative activity against MTAP-deleted human HCT-116 cells assessed as effect on cell viability incubated for 6 days by Celltiter-Glo luminescent cell viability assay; format: functional, cell-based; conditions: HCT-116, 144 h
HCT-116 [2] = test: Antiproliferative activity against human HCT-116 cells harboring wildtype MTAP assessed as effect on cell viability incubated for 6 days by Celltiter-Glo luminescent cell viability assay; format: functional, cell-based; conditions: HCT-116, 144 h
[3] = target: T1, Nuclear receptor subfamily 1 group I member 2 (Homo sapiens, UniProt O75469); test: Activation of human PXR in human HepG2 cells co-transfected with CYP3A4-luciferase at 10 uM incubated for 1 day relative to control; conditions: hepg2, 24 h
T1 sequence (O75469 whole entry): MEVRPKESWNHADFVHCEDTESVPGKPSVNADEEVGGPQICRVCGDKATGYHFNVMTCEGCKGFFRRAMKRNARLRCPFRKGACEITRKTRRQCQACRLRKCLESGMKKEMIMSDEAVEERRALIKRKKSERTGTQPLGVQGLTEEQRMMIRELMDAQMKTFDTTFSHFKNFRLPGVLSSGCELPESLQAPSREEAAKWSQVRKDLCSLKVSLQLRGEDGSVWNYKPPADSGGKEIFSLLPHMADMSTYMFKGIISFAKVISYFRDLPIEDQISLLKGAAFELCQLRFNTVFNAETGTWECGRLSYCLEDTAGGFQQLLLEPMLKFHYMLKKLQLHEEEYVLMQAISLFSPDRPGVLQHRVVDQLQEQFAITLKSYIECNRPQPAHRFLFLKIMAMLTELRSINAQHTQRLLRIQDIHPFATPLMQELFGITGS

CYP3A4 = CYP3A4 (Homo sapiens, UniProt P08684); test: in vitro; conditions: human liver microsomes, probe midazolam
PRMT5/MEP50 complex = PRMT5/MEP50 complex (Homo sapiens, UniProt O14744)
Description: Inhibition of PRMT5/MEP50 (unknown origin) preincubated with compound for 24 hrs in presence of SAM and MTA followed by Histone H4 (1-21)-Lys(Biotin) peptide addition and measured after 2 hrs by MTase-Glo reagent based assay

[4] = Metabolic stability in mouse liver microsomes assessed as intrinsic clearance at 0.5 uM incubated for 40 mins in presence of NADPH; format: ADME, Microsome; conditions: read-out: CLH
[5] = Metabolic stability in human liver microsomes assessed as intrinsic clearance at 0.5 uM incubated for 40 mins in presence of NADPH; format: ADME, Microsome; conditions: read-out: CLH
human MDR1 (P-gp) = test: Efflux ratio of permeability across basolateral to apical side over apical to basolateral side in MDCK cells transfected with human MDR1 in absence of elacridar; conditions: dog
[6] = Half-life in CD-1 mouse at 1 mg/kg, iv; format: ADME, organism-based; conditions: in vivo
[7] = Protein binding in mouse plasma assessed as unbound fraction by ultracentrifugation; conditions: mouse plasma
[8] = Unbound clearance in CD-1 mouse at 1 mg/kg, iv; format: ADME, organism-based; conditions: in vivo
in vivo = conditions: CD-1, mouse, iv, 1 mg/kg
[9] = Oral bioavailability in CD-1 mouse at 5 mg/kg administered as 1% Tween 80, 2% HPMC, 97% water/methane sulfonic acid, pH 2.0 formulation; format: ADME, organism-based; conditions: in vivo
[10] = Clearance in CD-1 mouse at 1 mg/kg, iv; conditions: in vivo

CYP3A4, sequence (P08684 whole entry): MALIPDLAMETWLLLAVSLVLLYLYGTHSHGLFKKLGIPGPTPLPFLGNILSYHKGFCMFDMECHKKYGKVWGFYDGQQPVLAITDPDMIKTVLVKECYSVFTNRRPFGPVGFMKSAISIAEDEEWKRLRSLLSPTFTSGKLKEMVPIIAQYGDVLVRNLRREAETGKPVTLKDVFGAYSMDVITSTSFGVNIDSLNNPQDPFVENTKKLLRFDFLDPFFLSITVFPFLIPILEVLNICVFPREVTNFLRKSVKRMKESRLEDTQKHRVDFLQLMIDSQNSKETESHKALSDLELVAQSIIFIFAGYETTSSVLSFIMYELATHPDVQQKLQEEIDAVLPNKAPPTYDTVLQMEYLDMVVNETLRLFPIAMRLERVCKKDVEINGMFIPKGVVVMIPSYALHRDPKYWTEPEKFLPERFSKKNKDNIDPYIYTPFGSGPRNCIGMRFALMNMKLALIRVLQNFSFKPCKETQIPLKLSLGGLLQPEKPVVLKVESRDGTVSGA
PRMT5/MEP50 complex, sequence (O14744 whole entry): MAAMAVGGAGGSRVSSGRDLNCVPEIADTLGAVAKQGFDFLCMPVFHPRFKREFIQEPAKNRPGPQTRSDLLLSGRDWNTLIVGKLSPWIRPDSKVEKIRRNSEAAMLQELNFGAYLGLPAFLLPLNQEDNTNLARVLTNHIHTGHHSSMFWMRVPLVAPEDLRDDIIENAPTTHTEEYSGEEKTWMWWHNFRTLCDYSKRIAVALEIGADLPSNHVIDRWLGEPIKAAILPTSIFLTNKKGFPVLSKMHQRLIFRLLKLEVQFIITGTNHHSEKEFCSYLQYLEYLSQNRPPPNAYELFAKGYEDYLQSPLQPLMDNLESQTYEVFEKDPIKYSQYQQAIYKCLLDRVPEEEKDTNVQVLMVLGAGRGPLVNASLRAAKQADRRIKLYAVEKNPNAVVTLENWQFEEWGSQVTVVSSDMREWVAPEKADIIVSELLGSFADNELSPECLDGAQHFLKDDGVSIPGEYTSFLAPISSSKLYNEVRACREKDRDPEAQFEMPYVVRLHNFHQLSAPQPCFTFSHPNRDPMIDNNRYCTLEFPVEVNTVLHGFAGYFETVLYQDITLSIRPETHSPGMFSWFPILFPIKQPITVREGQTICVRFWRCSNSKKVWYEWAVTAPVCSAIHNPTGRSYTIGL
PRMT5/MEP50 complex, sequence (Q9BQA1 whole entry, further chain): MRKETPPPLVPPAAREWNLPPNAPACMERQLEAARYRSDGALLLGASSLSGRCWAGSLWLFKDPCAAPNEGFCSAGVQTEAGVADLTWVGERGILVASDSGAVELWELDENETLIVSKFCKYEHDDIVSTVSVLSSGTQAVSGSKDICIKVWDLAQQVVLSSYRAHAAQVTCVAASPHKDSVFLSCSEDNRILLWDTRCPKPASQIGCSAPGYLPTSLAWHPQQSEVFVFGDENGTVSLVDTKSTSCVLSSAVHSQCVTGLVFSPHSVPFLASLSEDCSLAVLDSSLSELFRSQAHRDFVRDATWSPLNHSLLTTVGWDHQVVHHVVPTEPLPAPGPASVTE

IC50 (HCT-116 [1]) [nM]	IC50 (HCT-116 [2]) [nM]	Activity [3] [%]	inhibition at 30 min, 10 µM (CYP3A4) [%]	Ki (PRMT5/MEP50 complex) [nM]	microsomal CLint at 0.5 µM [4] [µL/min/mg]	microsomal CLint at 0.5 µM [5] [µL/min/mg]	efflux ratio (human MDR1 (P-gp))	half-life [6] [h]	fraction unbound [7]	CL free [8] [mL/min/kg]	Vd (in vivo) [L/kg]	bioavailability [9] [%]	clearance [10] [mL/min/kg]	SMILES
74	68	–	–	–	–	–	–	–	–	–	–	–	–	CC(=O)N1CCC(Nc2cc(C(=O)NC[C@H](O)CN3CCc4ccccc4C3)ncn2)CC1 [PEMRAMETOSTAT]
10	26	50	≤ 10	< 0.1	624	262	31	–	–	–	–	–	–	C[C@H](c1ncccn1)N(Cc1ccc(C(F)(F)F)cn1)C(=O)c1cc2c3c(c(N)nc2cc1F)COC3
4600	> 50000	< 20	< 20	1.1	64	49	7	–	–	–	–	–	–	C[C@@H]1OCc2c1c(N)nc1cnc(C(=O)N3CCOC[C@@H]3c3ccc(C(F)(F)F)cc3)cc21
533	8530	< 20	< 20	0.2	17	14	36	2.5	0.27	25	1	46	6.67	Nc1nc2ccc(C(=O)N3CCOC[C@@H]3c3ccc(C(F)(F)F)nc3)cc2c2c1COC2
395	9430	< 20	< 20	< 0.1	16	14	33	2.1	0.18	36.7	1.2	78	6.67	Nc1nc2ccc(C(=O)N3CCOC[C@@H]3c3ccc(C(F)(F)F)cn3)cc2c2c1COC2
233	4810	< 20	< 20	< 0.1	78	50	13	2.7	0.05	130	1.6	61	6.67	Nc1nc2ccc(C(=O)N3CCOC[C@@H]3c3ccc(C(F)(F)F)cc3)cc2c2c1COC2
431	6090	22	52	–	148	32	–	–	–	–	–	–	–	Cc1cc2cc(C(=O)N(Cc3ccc(C(F)(F)F)cn3)CC(C)C)ccc2nc1N
112	2090	< 20	< 20	< 0.1	102	74	4	–	–	–	–	–	–	Nc1nc2cnc(C(=O)N3CCCC[C@@H]3c3ccc(C(F)(F)F)cc3)cc2c2c1COC2
399	8270	< 20	< 20	< 0.1	121	42	8	–	–	–	–	–	–	Nc1nc2ccc(C(=O)N3CCOC[C@@H]3c3ccc(Cl)cc3)cc2c2c1COC2
404	7950	11	31	0.1	46	14	29	–	–	–	–	–	–	Cc1cc2cc(C(=O)N(Cc3ccc(C(F)(F)F)cn3)[C@H](C)c3ncccn3)ncc2nc1N
